From the CATMoS acute toxicity set (Mansouri et al. 2021)

Test: GHS categories as the set defines them, by LD50: 1 up to 5, 2 up to 50, 3 up to 300, 4 up to 2000, 5 above 2000 mg/kg
Conditions: rat; in vivo; po
Work on `CCC(=O)O[C@]1(C(=O)COC(C)=O)CC[C@H]2[C@@H]3C[C@H](C)C4=CC(=O)C=C[C@]4(C)[C@H]3[C@@H](O)C[C@@]21C` yielded a GHS category of 5.
Molecule `CC(=O)N(CC(O)CO)c1c(I)c(C(=O)NCC(O)CO)c(I)c(C(=O)NCC(O)CO)c1I` (stereo not drawn) has a GHS category of 5.
For `C#CCOc1cc(-n2nc3n(c2=O)CCCC3)c(Cl)cc1Cl`, the GHS category was 5.
Molecule `CCC(C)(Oc1ccc(Cl)cc1)C(=O)OC1CC(C)CC(C)(C)C1` (stereo not drawn) has a GHS category of 5.
For `CC1(C)C2CC[C@]3(C)C(CC=C4[C@H]5C[C@](C)(C(=O)O)CC[C@]5(C)CC[C@]43C)[C@@]2(C)CC[C@@H]1OC(=O)C=CC(=O)O` (stereo partly drawn), the GHS category was 5.
In the case of `CC(=O)OC1CC(C)CCC1C(C)C` (stereo not drawn), the GHS category is reported as 5.
`COc1ccc2c(c1)c(CC(=O)NC1CCCC1)c(C)n2C(=O)c1ccc(Cl)cc1` gave a GHS category of 5.
With `CCOP(=S)(OCC)N(SN(C)C(=O)ON=C(C)SC)C1CCCCC1` the GHS category was 3.
With `S=C(SSSSSSC(=S)N1CCCCC1)N1CCCCC1` the GHS category was 5.
Work on `N=c1ccn2c(n1)O[C@H]1[C@H](O)[C@@H](CO)O[C@H]12` yielded a GHS category of 5.
For `CCCCCCCCCCCCCOC(=O)CCCCC(=O)OCCCCCCCCCCCCC`, the GHS category was 5.
Work on `CC(C)(c1ccc(OCC2CO2)cc1)c1ccc(OCC2CO2)cc1` (stereo not drawn) yielded a GHS category of 4.
For `COC(=O)c1cc(F)ccc1N`, the GHS category was 5.
In the case of `CCCN(CCC)c1c([N+](=O)[O-])cc(C(C)C)cc1[N+](=O)[O-]`, the GHS category is reported as 5.
Molecule `C=C(C)c1cccc(C(=C)C)c1` has a GHS category of 5.
In the case of `Oc1c(Br)ccc2c(O)c(Br)ccc12`, the GHS category is reported as 5.
With `CCCCC(CC)C(=O)OC` (stereo not drawn) the GHS category was 5.
Work on `O=C(Nc1ccccc1SSc1ccccc1NC(=O)c1ccccc1)c1ccccc1` yielded a GHS category of 5.
Molecule `S=C(SSC(=S)N(Cc1ccccc1)Cc1ccccc1)N(Cc1ccccc1)Cc1ccccc1` has a GHS category of 5.
For `O=c1c2cc(Cl)ccc2[nH]c2cc3c(=O)c4cc(Cl)ccc4[nH]c3cc12`, the GHS category was 5.
For `COCCOc1ccccc1S(=O)(=O)N=C(O)N=c1nc(OC)[nH]c(OC)n1`, the GHS category was 5.
With `CC(C)=CCOc1ccc(/C=C/C(=O)c2ccc(OCC=C(C)C)cc2OCC(=O)O)cc1` the GHS category was 5.
`C[C@H]1c2cccc(O)c2C(=O)C2=C(O)[C@]3(O)C(=O)C(C(N)=O)=C(O)[C@@H](N(C)C)[C@@H]3[C@@H](O)[C@@H]21` showed a GHS category of 5.
`CCCCOC(=O)c1ccc(-n2nc(OCCCN(C)C)c3ccccc32)cc1` showed a GHS category of 4.
Work on `O=[N+]([O-])c1cccc(C=NOCc2cccc([N+](=O)[O-])c2)c1` yielded a GHS category of 4.
Molecule `CC1CCC(C(C)C)C(OCC(O)CO)C1` (stereo not drawn) has a GHS category of 5.
Molecule `Cc1cccc2ncc(C(=O)NC34CC5CC(CC(C5)C3)C4)c(=O)n12` has a GHS category of 3.
With `Clc1ccc(CN2CCN=C2c2ccccc2)cc1` the GHS category was 4.
Work on `CC(Br)(CBr)COc1c(Br)cc(C(C)(C)c2cc(Br)c(OCC(C)(Br)CBr)c(Br)c2)cc1Br` (stereo not drawn) yielded a GHS category of 5.
In the case of `C[C@@H]1C[C@H]2C3C[C@H](F)C4=CC(=O)C=CC4(C)[C@@]3(F)[C@@H](O)CC2(C)[C@@]1(O)C(=O)COC(=O)C(C)(C)C` (stereo partly drawn), the GHS category is reported as 5.
Molecule `Nc1nc(/C(=C/CC(=O)O)C(=O)N[C@@H]2C(=O)N3C(C(=O)O)=CCS[C@H]23)cs1` has a GHS category of 5.
`Cc1ccc2[nH]c3cc4c(=O)c5cc(C)ccc5[nH]c4cc3c(=O)c2c1` showed a GHS category of 5.
Molecule `CC(=O)OC1CN(C)C(=O)N1c1cc(C(C)(C)C)no1` (stereo not drawn) has a GHS category of 4.
With `CCOC(=O)C(C)O` (stereo not drawn) the GHS category was 5.
`COC(=O)c1ccc(C(=O)OC)c(N=NC(C(C)=O)C(=O)Nc2ccc(NC(=O)C(N=Nc3cc(C(=O)OC)ccc3C(=O)OC)C(C)=O)cc2)c1` (stereo not drawn) showed a GHS category of 5.
Molecule `O=[N+]([O-])c1ccc2c(c1)COP(=S)(NC1CCCCC1)O2` (stereo not drawn) has a GHS category of 3.
`C=C1CC[C@H]2O[C@]2(C)CC[C@@H]2[C@@H]1CC2(C)C` gave a GHS category of 5.
`CC1=C(CCC(=O)O)c2cc3[nH]c(cc4nc(cc5[nH]c(cc1n2)c(C)c5C(C)O)C(C)=C4C(C)O)c(C)c3CCC(=O)O` (stereo not drawn) gave a GHS category of 5.
`COc1cc(C)c(C(=O)c2c(OC)ccc(Br)c2C)c(OC)c1OC` gave a GHS category of 5.
In the case of `O=C(CC(=O)c1ccccc1)c1ccccc1`, the GHS category is reported as 5.
For `COc1ccc2c(c1)CCN(c1ccccc1)C2c1ccccc1OC` (stereo not drawn), the GHS category was 4.
For `CO[Si](CC(C)CC(C)(C)C)(OC)OC` (stereo not drawn), the GHS category was 5.
In the case of `Oc1cc(Cl)cc(Br)c1`, the GHS category is reported as 5.
For `Clc1ccc(I)cc1Cc1ccc(OC2CCOC2)cc1` (stereo not drawn), the GHS category was 5.
Molecule `CCCc1nc2ccnn2c(N)c1Cc1ccc(-c2ccccc2-c2nn[nH]n2)cc1` has a GHS category of 4.
For `Cc1ccc(OP(=O)(Oc2ccc(C)cc2C)Oc2ccc(C)cc2C)c(C)c1`, the GHS category was 5.
`Oc1ccc(C(O)CN2CCN(C(c3ccccc3)c3ccccc3)CC2)cc1` (stereo not drawn) showed a GHS category of 5.
`O=C(Nc1ccc(NC(=O)c2cc3ccccc3c(N=Nc3cc(Cl)ccc3Cl)c2O)cc1)c1cc2ccccc2c(N=Nc2cc(Cl)ccc2Cl)c1O` showed a GHS category of 5.
`CCCc1c(Cc2ccc(-c3ccccc3-c3nn[nH]n3)cc2)c(=O)nc2nc(CC)[nH]n12` gave a GHS category of 4.
`CC(=O)OCC1=C(C(=O)O)N2C(=O)C(NC(=O)Cc3cccs3)C2SC1` (stereo not drawn) showed a GHS category of 5.
Molecule `C#CCC(O[Si](CC)(CC)CC)[Si](CC)(CC)CC` (stereo not drawn) has a GHS category of 5.
With `CCCCCCOC=O` the GHS category was 5.
For `CCCCC(C)OP(=S)(OC)OC` (stereo not drawn), the GHS category was 4.
Molecule `CCCCCCCC/C=C\CCCCCCCC(=O)OC[C@H](O)[C@H]1OC[C@H](OC(=O)CCCCCCC/C=C\CCCCCCCC)[C@H]1OC(=O)CCCCCCC/C=C\CCCCCCCC` has a GHS category of 5.
Molecule `COc1ccc(Cl)cc1NC(=O)CC(C)=O` has a GHS category of 5.
`CC(=O)CC(=O)Nc1cc(Cl)c(NC(=O)CC(C)=O)cc1C` showed a GHS category of 5.
For `O=C(O)CN(CCCN(C(=O)O)C(=O)O)C(=O)O`, the GHS category was 5.
With `N#CCCNCCCCCCNCCC#N` the GHS category was 5.
With `CCCCCCCCCCCCCCOC(=O)Cl` the GHS category was 5.
Work on `CCN(C(=O)CCCSc1nnnn1C)C1CCCCC1` yielded a GHS category of 4.
`COC(=O)[C@H]1[C@H]2C[C@@H]3c4[nH]c5cc(OC)ccc5c4CCN3C[C@H]2C[C@@H](OC(=O)/C=C/c2ccc(O)c(OC)c2)[C@@H]1OC` showed a GHS category of 5.
Work on `CCOC(=O)C(Cl)C(=O)OCC` yielded a GHS category of 4.
Molecule `Cn1nnnc1SCCCSc1ccncc1` has a GHS category of 4.
Work on `Cc1ccc(C(=O)O)cc1[N+](=O)[O-]` yielded a GHS category of 5.
With `CCC1COC(=O)O1` (stereo not drawn) the GHS category was 5.
`CC1=CC[C@H](CC=O)C1(C)C` gave a GHS category of 5.
Work on `O=c1cc(-c2ccccc2)c2ccc(OCCCN3CCC(c4ccccc4)CC3)cc2[nH]1` yielded a GHS category of 4.
Molecule `CCN(CCCCOC(=O)c1ccc(OC)c(OC)c1)C1CCc2cc(OC)ccc2C1` (stereo not drawn) has a GHS category of 5.
Work on `O=C1c2ccccc2CN2C(=O)c3ccccc3CN12` yielded a GHS category of 5.
`CC(O)CCCCO` (stereo not drawn) showed a GHS category of 5.
For `C=C[Si](C)(C)Cl`, the GHS category was 3.
`CC1CCCO1` (stereo not drawn) showed a GHS category of 4.
`CC12C=CC(=O)C=C1CCC1C2CCC2(C)C(O)CCC12` (stereo not drawn) showed a GHS category of 5.
Work on `O=Cc1cc([N+](=O)[O-])ccc1Cl` yielded a GHS category of 5.
Molecule `C=C(C)C(=O)OCCOCCOCCOCC` has a GHS category of 5.
`C=CCc1cc(C(C)(C)c2ccc(O)c(CC=C)c2)ccc1O` gave a GHS category of 5.
Work on `NC(=O)c1cc[n+](CC2=C(C(=O)O)N3C(=O)[C@@H](NC(=O)[C@H](c4ccccc4)S(=O)(=O)[O-])[C@@H]3SC2)cc1` yielded a GHS category of 5.
`FC(F)(F)OC(F)(Cl)C(F)(F)Cl` (stereo not drawn) showed a GHS category of 5.
Work on `CC(C)(C)OOC(C)(C)c1cccc(C(C)(C)OOC(C)(C)C)c1` yielded a GHS category of 5.
Molecule `CC(=O)c1ccc(Oc2ccc(Cl)cc2)cc1Cl` has a GHS category of 5.
`NS(=O)(=O)c1ccccc1C(F)(F)F` showed a GHS category of 4.
Molecule `CCN1CCN(C(=O)N[C@@H](C(=O)N[C@@H]2C(=O)N3C(C(=O)O)=C(CSc4nnnn4C)CS[C@H]23)c2ccc(O)cc2)C(=O)C1=O` has a GHS category of 5.
For `O=C(O)CN(CC(=O)O)CC(O)CN(CC(=O)O)CC(=O)O`, the GHS category was 5.
With `CSC(C)(C)SC` the GHS category was 5.
With `CCOC(=O)c1ccnc(C(=O)OCC)c1` the GHS category was 5.
`COC(=O)c1nccnc1N` showed a GHS category of 5.
With `CNc1nc(Nc2ccccc2)nc(Nc2ccc(C=Cc3ccc(Nc4nc(NC)nc(Nc5ccccc5)n4)cc3S(=O)(=O)O)c(S(=O)(=O)O)c2)n1` the GHS category was 5.
With `CC(C)(C)C1CCC(OC(=O)OOC(=O)OC2CCC(C(C)(C)C)CC2)CC1` (stereo not drawn) the GHS category was 5.
With `COCCOCOCCOC` the GHS category was 5.
`COc1ccc(Cl)cc1C(=O)NCCc1ccc(S(=O)(=O)NC(=O)NC2CCCCC2)cc1` showed a GHS category of 5.
`CCOC(=O)/C=C(C)/C=C/CC(C)CCCC(C)C` (stereo not drawn) showed a GHS category of 5.
Work on `CNC(=O)Oc1cccc2c1OC(C)(C(C)(C)C)O2` (stereo not drawn) yielded a GHS category of 4.
With `C#CCOC(=O)Nc1nc(N2CC=CCC2)cc2nc(=O)on12` the GHS category was 5.
`CC12CCC(=O)C=C1CCC1C3CCC4(CCC(=O)O4)C3CCC12C` (stereo not drawn) showed a GHS category of 5.
`CCCCCCCCCCCC(=O)OC` showed a GHS category of 5.
In the case of `N#CNC(=N)NCCCCCCNC(=N)NC#N`, the GHS category is reported as 5.
Work on `COC(=O)COc1nc(F)c(Cl)c(N)c1Cl` yielded a GHS category of 5.
With `CCCc1c(Cc2ccc(-c3sccc3-c3nn[nH]n3)cc2)c(=O)nc2nc[nH]n12` the GHS category was 4.
Work on `CCOC(=O)C(=O)Nc1cc(SC)nc(C)n1` yielded a GHS category of 4.
`C[C@@H]1CO[C@@](Cn2cncn2)(c2cc3cc(Cl)ccc3o2)O1` showed a GHS category of 4.
With `CN1CCN(CC(=O)N2c3ccccc3C(=O)Nc3cccnc32)CC1` the GHS category was 5.
`CCC1(CC)COC(Cn2cncn2)(c2cc3ccccc3o2)OC1` gave a GHS category of 4.
With `Cc1cc2[nH]c(=O)[nH]c2cc1N=NC1C(=O)NC(=O)NC1=O` the GHS category was 5.
Work on `O=S(=O)(O)c1ccc(/N=N/c2cc(CO)c(O)c(/N=N/c3ccc(S(=O)(=O)O)c4ccccc34)c2O)c2ccccc12` yielded a GHS category of 5.
Work on `CCOCC1COC(Cn2cncn2)(c2cc3ccccc3o2)O1` (stereo not drawn) yielded a GHS category of 4.
With `COc1cccc(N(C)C(=S)Oc2ccc3c(c2)CCCC3)n1` the GHS category was 5.
`O=S(=O)(O)CC(O)CNC1CCCCC1` (stereo not drawn) showed a GHS category of 5.
With `Cc1ccnc(N)c1` the GHS category was 4.
With `O=C(Nc1ccc(Cl)cc1)c1ccccc1` the GHS category was 4.
Work on `O=C(CCn1cnc2c(=O)nc[nH]c21)Nc1ccc(C(=O)O)cc1` yielded a GHS category of 5.
With `N[C@@H](Cc1c[nH]c2ccccc12)C(=O)O` the GHS category was 5.
`C1C2CC3CC1CC(C2)C3` gave a GHS category of 5.
For `C=CCN(C(C)=O)C(=O)Oc1cccc2c1OC(C)(C)O2`, the GHS category was 4.
